Data: the NIST ThermoML archive (doi:10.1016/j.fluid.2004.10.025)
Numbers after ± are expanded uncertainties.

Conditions: Liquid

| Compound | vapor or sublimation pressure (283.15 K) [kPa] | vapor or sublimation pressure (288.15 K) [kPa] | vapor or sublimation pressure (293.15 K) [kPa] | vapor or sublimation pressure (298.15 K) [kPa] | vapor or sublimation pressure (303.15 K) [kPa] | vapor or sublimation pressure (308.15 K) [kPa] | vapor or sublimation pressure (313.15 K) [kPa] | vapor or sublimation pressure (318.15 K) [kPa] | vapor or sublimation pressure (323.15 K) [kPa] |
| --- | --- | --- | --- | --- | --- | --- | --- | --- | --- |
| ClC(Cl)C(Cl)Cl [1,1,2,2-tetrachloroethane] | 0.263 ± 0.021 | 0.373 ± 0.021 | 0.521 ± 0.022 | 0.711 ± 0.023 | 0.98 ± 0.025 | 1.289 ± 0.028 | 1.701 ± 0.028 | 2.236 ± 0.029 | 2.86 ± 0.03 |
| ClC(Cl)=C(Cl)Cl [tetrachloroethene] | 1.023 ± 0.026 | 1.4 ± 0.027 | 1.861 ± 0.028 | 2.462 ± 0.029 | 3.205 ± 0.031 | 4.117 ± 0.033 | 5.253 ± 0.036 | 6.621 ± 0.039 | 8.286 ± 0.043 |
| ClC(Cl)(Cl)Cl [tetrachloromethane] | 7.514 ± 0.042 | 9.601 ± 0.047 | 12.14 ± 0.054 | 15.22 ± 0.064 | 18.98 ± 0.076 | 23.36 ± 0.09 | 28.53 ± 0.11 | 34.59 ± 0.13 | 41.68 ± 0.15 |
